Source: publication PMC10049026, “In Silico Binding of 2-Aminocyclobutanones to SARS-CoV-2 Nsp13 Helicase and Demonstration of Antiviral Activity” (International Journal of Molecular Sciences, 2023)
Like-named read-outs stand apart in the source and are kept apart here.

Tests used:
[1] = tested on: Delta Variant hCoV-19/USA/MD-HP05285/2021 (Lineage B.1.617.2); assay: microbe, parasite or virus in culture; assay type: cell-based, SARS-CoV-2; conditions: for IC50: Severe acute respiratory syndrome coronavirus 2
[2] = tested on: Omicron Variant hCoV-19/USA/MD-HP20874/2021 (Lineage B.1.1.529); assay: microbe, parasite or virus in culture; assay type: cell-based, SARS-CoV-2; conditions: Severe acute respiratory syndrome coronavirus 2

In the case of Cc1ccc(S(=O)(=O)N[C@@H](Cc2c[nH]c3ccccc23)C(=O)NC2CCC2=O)cc1 (stereo partly drawn) [Compound 4, (2S)-3-(1H-Indol-3-yl)-2-((4-methylphenyl)sulfonamido)-N-(2-oxocyclobutyl)propanamide], the “difference in IC50, variants vs wild-type” value [1] is reported as 10 to 20 fold, the IC50 ([1]; read-out: IC50, Delta VOC (Figure 5)) is reported as 943 ± 526 nM and the IC50 ([1]; read-out: IC50 Values For inhibition of SARS-CoV-2 Mediated Cell Death, Delta) is reported as 220 nM. The IC50 ([2]; read-out: IC50, Omicron VOC (Figure 5)) was 2590 ± 1280 nM and the IC50 ([2]; read-out: IC50 Values For inhibition of SARS-CoV-2 Mediated Cell Death, Omicron) was 1580 nM.
